Measurements reported in patent US20130273179A1, “SYSTEM AND METHOD FOR IMPROVING OUTCOME OF CEREBRAL ISCHEMIA” (ASTUCE, INC., priority 2012, published 2013).

Legend:
[1] = tested on: cerebral ischemia (carotid artery occlusion model); assay: Carotid artery occlusion model, Speckle laser Doppler, intubated rodents; assay type: in vivo; conditions: both during the carotid occlusion and following ligature release
Experimental: (§1) In intubated rodents, the inventors have shown that cerebral blood flow increases by 100% within 60 minutes of intranasal nitric oxide delivery.

cerebral blood flow = assay: Cerebral blood flow by cortical laser Doppler during intranasal nitric oxide in intubated rodents; assay type: in vivo; conditions: intranasal non-inhaled delivery, within 60 minutes
Experimental: as §1

cerebral perfusion = assay: CT perfusion scanning before and after intranasal nitric oxide in intubated patients with focal cerebral ischemia; assay type: in vivo, human
[2] = Tolerability of intranasal nitric oxide in awake humans (normal volunteers); assay type: in vivo, human
Excerpt: While nitric oxide may be given intranasally and without inhalation into the lungs to intubated, comatose individuals the tolerability of intranasal nitric oxide in awake humans has not previously been investigated. The inventors have tested the effect of nitric oxide in humans (normal volunteers) during intranasal delivery. […] Therefore it can easily be tolerated by awake, non-intubated patients.

Structure (SMILES): [N]=O [nitric oxide]
- perfusion in the ischemic hemisphere [1]: perfusion is improved in the ischemic hemisphere
- cerebral blood flow increase (cerebral blood flow): 100%
- Cerebral Blood Flow, Changes in ACA Watershed (cerebral perfusion; Post Rx): Normalization,
- Mean Transit Time, Changes in ACA Watershed (cerebral perfusion; Post Rx): Normalization
- Cerebral Blood Flow, Changes in ACA Watershed: increase in perfusion on L (cerebral perfusion; Post Rx vs Pre Rx, left (ischemic) hemisphere): 67% increase in
- Mean Transit Time, Right Hemisphere (normal) (cerebral perfusion; Post Rx, one hour of intranasal non-inhaled nitric oxide (Pre Rx 6)): 6.1 s
- Mean Transit Time, Left Hemisphere (ischemic) (cerebral perfusion; Post Rx, one hour of intranasal non-inhaled nitric oxide (Pre Rx 10)): 6.0 s
- Cerebral Blood Flow, Left Hemisphere (ischemic) (cerebral perfusion; Post Rx, one hour of intranasal non-inhaled nitric oxide (Pre Rx 31)): 52
- Cerebral Blood Flow, Right Hemisphere (normal) (cerebral perfusion; Post Rx, one hour of intranasal non-inhaled nitric oxide (Pre Rx 49)): 45
- cerebral perfusion during treatment (CT perfusion scanning) (cerebral perfusion; intubated patients with cerebral ischemia): augmentation of cerebral perfusion and normalization of regional perfusion abnormalities
- tolerability of gas treatment ([2]; humans, high concentration, intra-nasally and without inhalation): tolerated at high concentration
- sensation during intranasal delivery ([2]; normal volunteers, concentrations up to 100 PPM): does not elicit any sensation
